Results on six compounds are retold here after patent US11878966B2, “Substituted 4-benzyl and 4-benzoyl piperidine derivates” (89BIO LTD, priority 2015, dated 2024).

In data set [1] the target is T1, recombinant human baculovirus-expressed GST-tagged FASN (Homo sapiens, UniProt P49327).
T1 construct: GST; host or cells: baculovirus expression system (insect cells implied)
Nature of the data set: FASN enzyme activity assay: fluorescence-based detection of CoA with CPM. The data set is classed as biochemical. The settings on record: 5 nM FASN, 150 μM NADPH, 10 μM acetyl-CoA, 25 μM malonyl-CoA, 90 minutes incubation. The essentials: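 IC50 values were fitted (variable-slope sigmoid) to percent inhibition from CPM fluorescence (390/530 nm) reporting free CoA after a 30 min labelling step. The reaction ran 90 min after malonyl-CoA (25 μM) addition, with 10 μM acetyl-CoA, 150 μM NADPH, 5 nM recombinant GST-FASN, 50 mM HEPES pH 7.5 and 0.5% DMSO.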

The structures appear in SMILES notation.

T1 sequence (P49327 whole entry): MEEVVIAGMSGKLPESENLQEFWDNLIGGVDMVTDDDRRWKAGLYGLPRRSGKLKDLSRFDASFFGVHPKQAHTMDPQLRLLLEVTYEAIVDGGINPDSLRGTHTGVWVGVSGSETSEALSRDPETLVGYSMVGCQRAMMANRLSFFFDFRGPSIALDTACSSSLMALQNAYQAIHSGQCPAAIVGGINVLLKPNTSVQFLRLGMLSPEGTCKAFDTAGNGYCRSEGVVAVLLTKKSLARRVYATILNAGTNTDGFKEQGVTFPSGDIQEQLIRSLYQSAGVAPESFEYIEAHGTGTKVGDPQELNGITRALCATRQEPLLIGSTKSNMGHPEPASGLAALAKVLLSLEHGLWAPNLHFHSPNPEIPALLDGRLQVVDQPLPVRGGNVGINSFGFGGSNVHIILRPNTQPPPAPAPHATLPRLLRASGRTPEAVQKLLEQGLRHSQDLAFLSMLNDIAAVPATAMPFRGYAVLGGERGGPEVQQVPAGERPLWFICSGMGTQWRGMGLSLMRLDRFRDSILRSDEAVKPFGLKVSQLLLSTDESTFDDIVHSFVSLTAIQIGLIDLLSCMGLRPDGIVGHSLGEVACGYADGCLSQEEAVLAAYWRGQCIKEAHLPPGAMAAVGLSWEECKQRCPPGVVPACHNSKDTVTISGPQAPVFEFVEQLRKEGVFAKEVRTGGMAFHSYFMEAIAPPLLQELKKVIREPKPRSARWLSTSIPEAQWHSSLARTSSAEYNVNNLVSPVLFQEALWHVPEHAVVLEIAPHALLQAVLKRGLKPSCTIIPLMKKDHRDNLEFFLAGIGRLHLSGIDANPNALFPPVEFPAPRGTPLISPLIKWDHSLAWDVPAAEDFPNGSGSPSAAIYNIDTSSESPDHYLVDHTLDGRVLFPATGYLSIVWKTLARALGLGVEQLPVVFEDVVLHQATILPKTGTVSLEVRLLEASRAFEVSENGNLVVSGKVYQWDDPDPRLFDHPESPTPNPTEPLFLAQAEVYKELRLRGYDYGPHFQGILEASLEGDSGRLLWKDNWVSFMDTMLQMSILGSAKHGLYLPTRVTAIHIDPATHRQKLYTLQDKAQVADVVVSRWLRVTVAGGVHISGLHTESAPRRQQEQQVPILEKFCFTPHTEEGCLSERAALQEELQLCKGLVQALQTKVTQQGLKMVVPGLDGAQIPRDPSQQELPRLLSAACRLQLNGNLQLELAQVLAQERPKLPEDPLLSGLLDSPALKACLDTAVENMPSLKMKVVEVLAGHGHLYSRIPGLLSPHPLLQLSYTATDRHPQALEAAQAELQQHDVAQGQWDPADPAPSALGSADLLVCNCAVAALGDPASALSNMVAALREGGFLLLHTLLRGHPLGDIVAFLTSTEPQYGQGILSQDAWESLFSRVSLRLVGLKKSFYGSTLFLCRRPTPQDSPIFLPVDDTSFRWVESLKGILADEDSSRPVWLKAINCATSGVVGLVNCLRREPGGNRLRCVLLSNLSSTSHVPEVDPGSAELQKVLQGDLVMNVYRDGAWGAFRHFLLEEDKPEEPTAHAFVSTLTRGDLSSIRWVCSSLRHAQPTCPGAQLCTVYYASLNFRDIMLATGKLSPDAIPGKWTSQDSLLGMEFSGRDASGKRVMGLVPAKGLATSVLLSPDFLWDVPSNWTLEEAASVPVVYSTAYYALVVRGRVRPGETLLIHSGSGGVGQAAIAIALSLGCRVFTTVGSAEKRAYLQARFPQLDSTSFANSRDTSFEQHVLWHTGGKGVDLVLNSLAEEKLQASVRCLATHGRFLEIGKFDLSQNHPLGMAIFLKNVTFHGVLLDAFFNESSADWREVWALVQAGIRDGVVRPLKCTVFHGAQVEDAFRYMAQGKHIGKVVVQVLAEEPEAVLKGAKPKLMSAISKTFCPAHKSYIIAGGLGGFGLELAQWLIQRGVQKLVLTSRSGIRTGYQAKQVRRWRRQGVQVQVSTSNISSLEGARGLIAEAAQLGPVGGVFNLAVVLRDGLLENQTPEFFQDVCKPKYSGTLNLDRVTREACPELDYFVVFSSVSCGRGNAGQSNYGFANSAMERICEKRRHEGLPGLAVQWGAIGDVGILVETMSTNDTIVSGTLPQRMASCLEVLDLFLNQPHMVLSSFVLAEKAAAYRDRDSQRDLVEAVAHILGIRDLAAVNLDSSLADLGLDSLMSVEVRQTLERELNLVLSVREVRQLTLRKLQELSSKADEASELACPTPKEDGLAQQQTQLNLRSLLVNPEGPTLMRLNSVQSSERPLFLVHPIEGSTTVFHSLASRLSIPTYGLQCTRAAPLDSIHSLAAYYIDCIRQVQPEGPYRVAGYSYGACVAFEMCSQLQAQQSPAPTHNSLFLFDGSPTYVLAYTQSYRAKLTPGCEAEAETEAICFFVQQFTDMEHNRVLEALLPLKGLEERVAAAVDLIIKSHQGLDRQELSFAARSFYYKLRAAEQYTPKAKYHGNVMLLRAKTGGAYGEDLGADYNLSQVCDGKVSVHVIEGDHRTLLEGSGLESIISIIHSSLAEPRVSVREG

As for `CC(C)C(=O)N1CCC(O)(Cc2ccc(-c3ccc4[nH]ccc4c3)cc2)CC1` [Example 155, 1-(4-(4-(1H-indol-5-yl)benzyl)-4-hydroxypiperidin-1-yl)-2-methylpropan-1-one], the melting point (usually the temperature of the solid-liquid transition) is 176 °C. Also, the IC50 (commonly the point on the concentration scale where inhibition reaches its midpoint) in data set [1] lay in the range of 1 to 10 µM.
Taken in the same sequence, the figures for `CCC(=O)N1CCC(O)(Cc2ccc(-c3cc4ccccc4o3)cc2)CC1` [Example 156, 1-(4-(4-(benzofuran-2-yl)benzyl)-4-hydroxypiperidin-1-yl)propan-1-one] were 174 °C and 1 to 10 µM.
The compound `CC(C)C(=O)N1CCC(O)(Cc2ccc(-c3cc4ccccc4o3)cc2)CC1` [Example 157, 1-(4-(4-(benzofuran-2-yl)benzyl)-4-hydroxypiperidin-1-yl)-2-methylpropan-1-one] registered a melting point of 203 °C. The IC50 in data set [1] was in the range of 1 to 10 µM.
Taken in the same sequence, the figures for `CCC(=O)N1CCC(O)(Cc2ccc(-c3cncc4ccccc34)cc2)CC1` [Example 158, 1-(4-hydroxy-4-(4-(isoquinolin-4-yl)benzyl)piperidin-1-yl)propan-1-one] were 78 °C and 1 to 10 µM.
`CC(C)C(=O)N1CCC(O)(Cc2ccc(-c3cncc4ccccc34)cc2)CC1` [Example 159, 1-(4-hydroxy-4-(4-(isoquinolin-4-yl)benzyl)piperidin-1-yl)-2-methylpropan-1-one]: the melting point amounted to 196 °C. Further, the IC50 in data set [1] was 1 to 10 µM.
The like results for `CCC(=O)N1CCC(O)(Cc2ccc(-c3ccc4cnccc4c3)cc2)CC1` [Example 160, 1-(4-hydroxy-4-(4-(isoquinolin-6-yl)benzyl)piperidin-1-yl)propan-1-one] were, in that order, 94 °C and 0.1 to 0.999 µM.
